Test results published in a flash point compilation (Sun et al. 2020).
Counter-ions that a name gives are not always drawn.

Row | SMILES | flash point
1 | C1CCC2CCCCC2C1 (stereo not drawn) [1,2,3,4,4a,5,6,7,8,8a-decahydronaphthalene] | 57.00 °C
2 | Oc1ccc(-c2ccccc2)cc1 [4-phenylphenol] | 166.00 °C
3 | ClCCCCCl [1,4-dichlorobutane] | 40.00 °C
4 | O=CCCl [2-chloroacetaldehyde] | 88.00 °C
5 | Cc1ccc(OP(=O)(Oc2ccc(C)cc2C)Oc2ccc(C)cc2C)c(C)c1 [tris(2,4-dimethylphenyl) phosphate] | 232.00 °C
6 | c1ccc(-c2ccccc2)cc1.c1ccc(Oc2ccccc2)cc1 [1,1'-biphenyl;phenoxybenzene] | 124.00 °C
7 | c1ccc2c(c1)ccc1ncccc12 [benzo[f]quinoline] | 166.00 °C
8 | O=Cc1ccccc1Cl [2-chlorobenzaldehyde] | 88.00 °C
9 | O=C=NC1CCCCC1 [isocyanatocyclohexane] | 49.00 °C
10 | Oc1ccc(Cl)c(Cl)c1Cl [2,3,4-trichlorophenol] | 62.00 °C
11 | O=C=Nc1ccc(Cl)cc1 [1-chloro-4-isocyanatobenzene] | 110.00 °C
12 | C1=Cc2ccccc2C1 [1H-indene] | 78.00 °C
13 | ClCC=CCCl [1,4-dichlorobut-2-ene] | 53.00 °C
14 | BrCC1CO1 (stereo not drawn) [2-(bromomethyl)oxirane] | 56.00 °C
15 | CC(=O)OCCOCCOCCOC(C)=O [2-[2-(2-acetyloxyethoxy)ethoxy]ethyl acetate] | 174.00 °C
16 | C=Cc1ccc(C)cc1.C=Cc1cccc(C)c1.C=Cc1ccccc1C | 52.00 °C
17 | OCCCBr [3-bromopropan-1-ol] | 94.00 °C
18 | O=P(OCCCl)(OCCCl)OCCCl [tris(2-chloroethyl) phosphate] | 232.00 °C
19 | Cc1ccc(CBr)cc1 [1-(bromomethyl)-4-methylbenzene] | 98.00 °C

Row | SMILES | flash point
20 | CSC(C)(C)/C=N/O [(NE)-N-(2-methyl-2-methylsulfanylpropylidene)hydroxylamine] | 118.00 °C
21 | C1COCOC1 [1,3-dioxane] | 2.00 °C
22 | CCN(CCO)CCO [2-[ethyl(2-hydroxyethyl)amino]ethanol] | 98.00 °C
23 | CCSC(=O)N(CC)C1CCCCC1 [S-ethyl N-cyclohexyl-N-ethylcarbamothioate] | 139.00 °C
24 | COCC(C)OC(C)=O (stereo not drawn) [1-methoxypropan-2-yl acetate] | 46.00 °C
25 | O=C(O)c1ccc2c(c1)C(=O)OC2=O [1,3-dioxo-2-benzofuran-5-carboxylic acid] | 227.00 °C
26 | C=CC(=O)OCCCCCCCC(C)C [8-methylnonyl prop-2-enoate] | 116.00 °C
27 | O=CC=O [oxaldehyde] | 220.00 °C
28 | Oc1c(Cl)ccc(Cl)c1Cl [2,3,6-trichlorophenol] | 79.00 °C
29 | Nc1ccc2c(c1)C(=O)c1ccccc1C2=O [2-aminoanthracene-9,10-dione] | 283.00 °C
30 | CCOCCOCCO [2-(2-ethoxyethoxy)ethanol] | 96.00 °C
31 | COc1ccc(C=O)cc1 [4-methoxybenzaldehyde] | 116.00 °C
32 | N#CN [cyanamide] | 141.00 °C
33 | CCCCCC(=O)O [hexanoic acid] | 104.00 °C
34 | CCCCN(CCC)N=O [N-butyl-N-propylnitrous amide] | 94.00 °C
35 | CCCSC(=O)N(CCC)CCC [S-propyl N,N-dipropylcarbamothioate] | 122.00 °C
36 | COC(=O)c1ccccc1C(=O)OC [dimethyl benzene-1,2-dicarboxylate] | 146.00 °C
37 | C1=CC2C3C=CC(C3)C2C1 (stereo not drawn) [tricyclo[5.2.1.02,6]deca-3,8-diene] | 32.00 °C
38 | Sc1ccccc1 [benzenethiol] | 53.00 °C

Row | SMILES | flash point
39 | COP(=O)(OC)OC1=C(Cl)C2C=CCC12 (stereo not drawn) | 165.00 °C
40 | CC(C)CCCCCOC(=O)c1ccccc1C(=O)OCCCCCC(C)C [bis(6-methylheptyl) benzene-1,2-dicarboxylate] | 232.00 °C
41 | CC(=O)Cl [acetyl chloride] | 4.00 °C
42 | CC1=CC(C)(C)Nc2ccccc21 [2,2,4-trimethyl-1H-quinoline] | 101.00 °C
43 | Cc1ccc(C)c(C)c1 [1,2,4-trimethylbenzene] | 44.00 °C
44 | CC1=CCC2CC1C2(C)C (stereo not drawn) [2,6,6-trimethylbicyclo[3.1.1]hept-2-ene] | 33.00 °C
45 | Cc1nn(C)c(Oc2ccccc2)c1/C=N/OCc1ccc(C(=O)OC(C)(C)C)cc1 | 85.00 °C
46 | CC(O)CN (stereo not drawn) [1-aminopropan-2-ol] | 77.00 °C
47 | CC(N)CO (stereo not drawn) [2-aminopropan-1-ol] | 63.00 °C
48 | CCCS [propane-1-thiol] | -15.00 °C
49 | CC(=O)c1ccccc1 [1-phenylethanone] | 82.00 °C
50 | Nc1ccc(Oc2ccc(N)cc2)cc1 [4-(4-aminophenoxy)aniline] | 219.00 °C
51 | O=C(OC[C@H]1O[C@@H](OC(=O)c2cc(O)c(O)c(OC(=O)c3cc(O)c(O)c(O)c3)c2)[C@H](OC(=O)c2cc(O)c(O)c(OC(=O)c3cc(O)c(O)c(O)c3)c2)[C@@H](OC(=O)c2cc(O)c(O)c(OC(=O)c3cc(O)c(O)c(O)c3)c2)[C@@H]1OC(=O)c1cc(O)c(O)c(OC(=O)c2cc(O)c(O)c(O)c2)c1)c1cc(O)c(O)c(OC(=O)c2cc(O)c(O)c(O)c2)c1 | 199.00 °C
52 | CCI [iodoethane] | 61.00 °C
53 | COP(=S)(OC)Oc1nc(Cl)c(Cl)cc1Cl | 182.00 °C
54 | ClCC(Br)CBr (stereo not drawn) [1,2-dibromo-3-chloropropane] | 77.00 °C
55 | CCOS(C)(=O)=O [ethyl methanesulfonate] | 100.00 °C
56 | CC(=O)Br [acetyl bromide] | 75.00 °C

Results, then the molecule that gave them:

Row | flash point | SMILES
57 | 13.00 °C | C=CC(C)(C)O [2-methylbut-3-en-2-ol]
58 | 26.00 °C | C1=CCCC=C1 [cyclohexa-1,3-diene]
59 | 59.00 °C | CC(C)C(=O)OC(=O)C(C)C [2-methylpropanoyl 2-methylpropanoate]
60 | 74.00 °C | CC1CC(O)CC(C)(C)C1 (stereo not drawn) [3,3,5-trimethylcyclohexan-1-ol]
61 | -6.00 °C | CC(C)OC=O [propan-2-yl formate]
62 | 102.00 °C | CC(=O)OCCO [2-hydroxyethyl acetate]
63 | 220.00 °C | c1ccc2c(c1)[nH]c1ccccc12 [9H-carbazole]
64 | 93.00 °C | CCOC(=O)CC(=O)OCC [diethyl propanedioate]
65 | 85.00 °C | CC(C)CCCCCCC=O [8-methylnonanal]
66 | 127.00 °C | Oc1cccc(O)c1 [benzene-1,3-diol]
67 | 94.00 °C | CC(C)(C)CCCCCC(=O)O [7,7-dimethyloctanoic acid]
68 | 110.00 °C | Cc1ccc(C(C)C)c(O)c1 [5-methyl-2-propan-2-ylphenol]
69 | 41.00 °C | CCCCCOC(=O)CC [pentyl propanoate]
70 | 224.00 °C | CCOC(=O)NCCOc1ccc(Oc2ccccc2)cc1 [ethyl N-[2-(4-phenoxyphenoxy)ethyl]carbamate]
71 | 16.00 °C | C=C(C)OC(C)=O [prop-1-en-2-yl acetate]
72 | 192.00 °C | O=[N+]([O-])c1ccc(O)cc1 [4-nitrophenol]
73 | -28.00 °C | C=CC=CC [penta-1,3-diene]
74 | 92.00 °C | C=C(C)C(=O)OCCC[Si](OC)(OC)OC [3-trimethoxysilylpropyl 2-methylprop-2-enoate]
75 | 128.00 °C | OCC=CCO [but-2-ene-1,4-diol]
76 | 133.00 °C | CCCCCCCCC(=O)O [nonanoic acid]
77 | 180.00 °C | CCCCCCCC/C=C\CCCCCCCC(=O)OCCCC [butyl (Z)-octadec-9-enoate]

Row | flash point | SMILES
78 | 168.00 °C | CC(=O)Nc1ccc(C)cc1 [N-(4-methylphenyl)acetamide]
79 | 100.00 °C | COc1ccc(C(=O)c2ccccc2)c(O)c1 [(2-hydroxy-4-methoxyphenyl)-phenylmethanone]
80 | 141.00 °C | CCCCN(C(C)=O)c1ccccc1 [N-butyl-N-phenylacetamide]
81 | 128.00 °C | Cc1ccc(S(=O)(=O)Cl)cc1 [4-methylbenzenesulfonyl chloride]
82 | -9.00 °C | CCC(C)N (stereo not drawn) [butan-2-amine]
83 | -188.00 °C | C [methane]
84 | 93.00 °C | Cc1cc(C)cc(N)c1 [3,5-dimethylaniline]
85 | 91.00 °C | CNc1ccccc1C(=O)OC [methyl 2-(methylamino)benzoate]
86 | 28.00 °C | CCCC(=O)C(C)=O [hexane-2,3-dione]
87 | 187.00 °C | CCCOC(=O)c1cc(O)c(O)c(O)c1 [propyl 3,4,5-trihydroxybenzoate]
88 | -26.00 °C | C=CCCCC [hex-1-ene]
89 | 53.00 °C | C=CCCCCCCCC [dec-1-ene]
90 | 33.00 °C | CC(C)C(C)O (stereo not drawn) [3-methylbutan-2-ol]
91 | 107.00 °C | CCCCOC(=O)c1ccccc1 [butyl benzoate]
92 | 57.00 °C | Cc1ccncc1 [4-methylpyridine]
93 | 25.00 °C | COC(C)COC(C)=O (stereo not drawn) [2-methoxypropyl acetate]
94 | 126.00 °C | OCC=Cc1ccccc1 [3-phenylprop-2-en-1-ol]
95 | 260.00 °C | CCCCCCCCCCCCCCCCCC(=O)OCCO [2-hydroxyethyl octadecanoate]
96 | 116.00 °C | CCOP(=O)(O)O [ethyl dihydrogen phosphate]
97 | 104.00 °C | CCc1ccc(O)cc1 [4-ethylphenol]
98 | 280.00 °C | CCCCCCCCCCCCCCCCCC(=O)NCCNC(=O)CCCCCCCCCCCCCCCCC [N-[2-(octadecanoylamino)ethyl]octadecanamide]
